How the values were obtained:
SphK2 = molecular target: T1, SphK2 (Homo sapiens, UniProt Q9NRA0); test: SphK2 activity assay (sphingosine substrate, with kinetic study); type: biochemical; conditions: relative activity vs no inhibitor; compounds at 10 μM (FIGS. 1, 3, 5)
T1 sequence (Q9NRA0 1-654): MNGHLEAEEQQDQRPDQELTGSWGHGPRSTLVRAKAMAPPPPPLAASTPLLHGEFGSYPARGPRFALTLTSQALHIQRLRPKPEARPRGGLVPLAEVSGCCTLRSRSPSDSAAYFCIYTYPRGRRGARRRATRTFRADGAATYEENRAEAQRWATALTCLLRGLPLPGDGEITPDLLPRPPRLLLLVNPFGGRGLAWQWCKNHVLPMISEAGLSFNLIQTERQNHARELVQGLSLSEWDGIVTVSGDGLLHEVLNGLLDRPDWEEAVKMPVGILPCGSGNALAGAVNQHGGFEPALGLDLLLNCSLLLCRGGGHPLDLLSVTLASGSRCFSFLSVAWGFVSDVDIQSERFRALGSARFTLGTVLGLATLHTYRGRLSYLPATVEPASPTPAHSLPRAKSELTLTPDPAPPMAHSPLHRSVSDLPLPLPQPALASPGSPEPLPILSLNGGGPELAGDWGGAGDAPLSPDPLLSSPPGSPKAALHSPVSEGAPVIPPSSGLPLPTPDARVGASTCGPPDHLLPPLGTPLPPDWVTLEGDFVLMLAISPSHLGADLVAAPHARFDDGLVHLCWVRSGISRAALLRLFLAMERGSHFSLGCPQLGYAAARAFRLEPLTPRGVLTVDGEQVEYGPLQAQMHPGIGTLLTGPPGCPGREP

SphK1 = SphK1 (Homo sapiens, UniProt Q9NYA1); test: SphK1 activity assay; type: biochemical; conditions: relative activity vs no inhibitor; compounds at 10 μM (FIGS. 1, 4, 6)
Chain of SphK1 (Q9NYA1 whole entry, species assumed): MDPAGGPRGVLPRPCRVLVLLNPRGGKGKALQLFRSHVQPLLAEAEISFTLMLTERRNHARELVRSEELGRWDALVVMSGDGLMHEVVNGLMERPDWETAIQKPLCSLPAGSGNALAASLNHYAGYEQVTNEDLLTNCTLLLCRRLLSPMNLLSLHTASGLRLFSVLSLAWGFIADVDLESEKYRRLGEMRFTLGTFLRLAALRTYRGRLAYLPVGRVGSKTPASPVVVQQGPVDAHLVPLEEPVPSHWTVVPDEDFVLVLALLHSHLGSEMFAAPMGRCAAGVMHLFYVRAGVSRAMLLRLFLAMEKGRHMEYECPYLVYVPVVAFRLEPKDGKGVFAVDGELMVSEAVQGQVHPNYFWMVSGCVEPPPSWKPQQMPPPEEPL
Method: A) SphK1 and SphK2 activities were measured with 5 μM sphingosine in the absence or presence of the indicated concentrations of K145 or 10 μM DMS. Data are expressed as percentage SphK activity in the absence of inhibitor; B) Effect of K145 (10 μM) on activity of the indicated enzymes was tested by SelectScreen Kinase Profiling from Invitrogen. CaMK11β, Ca2+/calmodulin-dependent protein kinase II; CDK2, cyclin-dependent kinase 2; EGFR, Epidermal Growth Factor Receptor; Fyn, Fyn Kinase (p55); ERK2, extracellular signal-regulated kinase 2; ERK1, extracellular signal-regulated kinase 1; PKA, protein kinase A; PKCα, protein kinase C α; P13K, phosphatidylinositide 3-kinase. Data are expressed as percentage of control activity averaged from 2 independent experiments.
FIG. 3. SphK2 was incubated with indicated compounds at 10 μM, then the activity of SphK2 was determined. The data shown here is a relative activity of SphK2 compared to control (no inhibitor, column labeled Sph in the Figure). 96047 is a known SpK2 inhibitor. A5, B26, K25 and QLA13 are known compounds [Li et al. (2009) Bioorg Med Chem Lett 19: 6042-6046; Liu et al. (2012) Eur J Med Chem 47: 125-137] and were tested for purposes of comparison. “A” and “B” refer to different batches of a compound. FIG. 4. SphK1 was incubated with indicated compounds at 10 μM, then the activity of SphK1 was determined. The data shown here is a relative activity of SphK1 compared to control (no inhibitor, column labeled Sph in the Figure). 96091 is a known Spk1 inhibitor. A5, B26, K25 and QLA13 are as above for […]. “A” and “B” refer to different batches of a compound.
FIG. 6. SphK1 was incubated with indicated compounds at 10 μM, then the activity of SphK2 was determined. The data shown here is a relative activity of SphK2 compared to control (no inhibitor).

[1] = system: human leukemia U937 cells; test: Cell viability assay in human leukemia U937 cells; type: cell-based; conditions: Homo sapiens, U-937; 24 hrs treatment, MTT assay; read-out: IC50 ± SEM, inhibition of U937 cell proliferation
Method: Cells were cultured at a density of 5×10^4 (U937) or 1×10^4 (PC-3, DU145, M12, HT29) cells per well in flat bottomed 96-well plates and treated with various concentrations of test compound at 37° C. (5% CO2). After 24 h, 20 μL of CellTiter 96® Aqueous One Solution Reagent (Promega, Madison, Wis.) was added to each well according to the manufacturer's instructions. After 1 hour, the cell viability was determined by measuring the absorbance at 490 nm using a micro-plate reader.

[2] = system: Raf/MEK/ERK and PI3K/Akt signaling pathways; test: Western blot analysis of ERK and Akt phosphorylation; type: cell-based; conditions: Western blot, FIGS. 9 and 10
Method: Cells (5×10^5 per ml) were treated with various concentrations of test compound at 37° C. (5% CO2) for 3 hrs, then stimulated with TPA at a final concentration of 200 nM for 20 min. Samples from whole-cell pellets were prepared and 30 μg protein for each condition was subjected to SDS-PAGE, transferred onto a PVDF membrane, and blocked with 5% fat-free milk for 30 min. The membrane is probed with primary antibodies overnight at 4° C. followed by incubation with horseradish peroxidase-labeled anti-mouse IgG (1:5000, BD Bioscience). The immunoreactive bands are detected by chemilluminescence methods (Pierce) and visualized on Kodak Omat film. The following primary antibodies were used: phospho-p44/42 MAPK (ERK1/2, Thr202/Tyr204), p44/42 MAPK, phospho-p90RSK (Thr359/Ser363), RSK1/RSK2/RSK3 (Cell Signaling). Blots were reprobed with antibodies against α-tubulin to ensure equal loading and transfer of proteins.

U937 cells = test: Cell apoptosis assay, annexin V/PI flow cytometry; type: cell-based, human; conditions: 24 hrs treatment
Method: Apoptosis was measured by flow cytometry using annexin V/propidium iodide (PI) as staining reagent. […] The cells were then incubated with annexin V-fluorescein isothiocyanate (FITC) (BD PharMingen, San Diego, Calif.) and 5 μg/mL propidium iodide (PI), and incubated for 15 minutes at room temperature in the dark per the manufacturer's instructions. The samples were analyzed by flow cytometry using a Becton Dickinson FACScan (Becton Dickinson, San Jose, Calif.) within 1 hr to determine the percentage of cells displaying annexin V staining (early apoptosis) or both annexin V and PI staining (late apoptosis).

U937 xenograft [3] = test: U937 xenografts in nude mice, i.p. administration; type: in vivo, BALB/c-nu mice; conditions: 15 mg/kg daily i.p.
Method: D) Body weights of mice throughout treatment. Data are expressed as mean value±SD. *P<0.05 compared to control group.
Female nude mice (BALB/c-nu, n=7) were inoculated with 3×10^7 U937 cells subcutaneously in the right flank. After 7 days of implant of U937 cells, mice were treated daily with Vehicle (control), or Tamibarotene (15 mg/Kg, positive control), or Formula III (K145) (15 mg/Kg) by i.p. administration. Tumor size was measured every other day.

U937 xenograft [4] = test: U937 xenografts in nude mice, oral administration; conditions: oral gavage daily 15 days; K145 50 mg/kg, tamibarotene 20 mg/kg
Method: BALB/c-nu mice (n=7) with palpable U937 xenograft were treated daily with vehicle, tamibarotene (20 mg/kg), or K145 (50 mg/kg) for 15 days by oral gavage. After treatment, animals were sacrificed and tumors were removed, weighed and images were taken. […] Data are expressed as mean value±SEM. *P<0.05 compared to control group.
In this experiment, K145 was given at 50 mg/kg by oral gavage daily for 15 days and tumor volume and animal weights were measured every other day. Again, tamibarotene (20 mg/kg) was used as positive control.

Row | Structure (SMILES) | IC50 [1] | inhibition of SphK2 activity (in words) (SphK2) | inhibition of SphK1 activity (in words) (SphK1) | other results
1 | CCCCCCCOc1ccc(CC/C=C2\SC(=O)N(CCNC(=N)N)C2=O)cc1 [K11167] |  | inhibits both Sphk1 and Sphk2 | inhibits both Sphk1 and Sphk2 | 
2 | CCCCCCCCCCCOc1ccc(CC/C=C2\SC(=O)N(CCN)C2=O)cc1 [KLII123] |  | inhibited SphK2 selectively | did not inhibit SphK1 or inhibited SphK1 to a lesser extent | 
3 | CCCCCCCCCOc1ccc(CC/C=C2\SC(=O)N(CCN)C2=O)cc1 [KLII157] |  | inhibited SphK2 selectively | did not inhibit SphK1 or inhibited SphK1 to a lesser extent | 
4 | NCCN1C(=O)C(=CCCc2ccc([N+](=O)[O-])cc2)c2ccccc21 [S-II-61, 1-(2-aminoethyl)-3-(3-(4-nitrophenyl)propylidene)indolin-2-one] | 3.6 ± 0.2 µM |  |  | 
5 | NCCN1C(=O)C(=CCCC23CC4CC(CC(C4)C2)C3)c2ccccc21 [S-II-73, 3-(3-(3r,5r,7r)-adamantan-1-yl)propylidene)-1-(2-aminoethyl)indolin-2-one] |  | inhibited SphK2 selectively | did not inhibit SphK1 or inhibited SphK1 to a lesser extent | 
6 | CCCCOc1ccc(CCC=C2C(=O)N(CCN)c3ccccc32)cc1 [S-II-78, 1-(2-aminoethyl)-3-(3-(4-butoxyphenyl)propylidene)indolin-2-one] | 4.6 ± 0.8 µM |  |  | 
7 | CCOc1ccc(CCC=C2C(=O)N(CCN)c3ccccc32)cc1 [S-II-102, 1-(2-aminoethyl)-3-(3-(4-ethoxyphenyl)propylidene)indolin-2-one] | 0.95 ± 0.11 µM |  |  | 
8 | CCCCCCCOc1ccc(CCC=C2C(=O)N(CCN)c3ccccc32)cc1 [S-II-103, 1-(2-aminoethyl)-3-(3-(4-(heptyloxy)phenyl)propylidene)indolin-2-one] | 3.5 ± 0.3 µM | inhibited SphK2 selectively | did not inhibit SphK1 or inhibited SphK1 to a lesser extent | inhibition of Raf/MEK/ERK and PI3K/Akt signaling pathways [2]: inhibit; apoptotic effects in U937 cells (U937 cells): mainly induced late apoptotic effects
9 | CCCCCCCOc1ccc(CC/C=C2/C(=O)N(CCN)c3ccccc32)cc1 [S-II-104] |  | inhibited SphK2 selectively | did not inhibit SphK1 or inhibited SphK1 to a lesser extent | 
10 | CC1(C)CCC(C)(C)c2cc(NC(=O)c3ccc(C(=O)O)cc3)ccc21 [tamibarotene, reference compound] |  |  |  | TGI (tumor growth inhibition) (U937 xenograft [3]; 17 days): 50.4%; body weights of mice (U937 xenograft [3]; compared with vehicle): caused body weight decreases; TGI (tumor growth inhibition) (U937 xenograft [4]): 33.37%

More lines, main results first:

Row | IC50 [1] | Structure (SMILES) | inhibition of SphK2 activity (in words) (SphK2) | inhibition of SphK1 activity (in words) (SphK1) | other results
11 | 2.7 ± 0.2 µM | NCCN1C(=O)C(=CCCC2CCCCC2)c2ccccc21 [S-II-36, 1-(2-aminoethyl)-3-(3-cyclohexylpropylidene)indolin-2-one] |  |  | 
12 | 2.69 ± 0.06 µM | NCCN1C(=O)C(=CCCc2ccc(F)cc2)c2ccccc21 [S-II-39, 1-(2-aminoethyl)-3-(3-(4-fluorophenyl)propylidene)indolin-2-one] |  |  | 
13 | 1.16 ± 0.05 µM | NCCN1C(=O)C(=CCCC2CC2)c2ccccc21 [S-II-40, 1-(2-aminoethyl)-3-(3-cyclopropylpropylidene)indolin-2-one] |  |  | 
14 | 4 ± 0.7 µM | NCCN1C(=O)C(=CCCc2ccc(Cl)cc2)c2ccccc21 [S-II-60, 1-(2-aminoethyl)-3-(3-(4-chlorophenyl)propylidene)indolin-2-one] |  |  | 
15 | 0.92 ± 0.04 µM | COc1ccc(CCC=C2C(=O)N(CCN)c3ccccc32)cc1 [S-II-71, 1-(2-aminoethyl)-3-(3-(4-methoxyphenyl)propylidene)indolin-2-one] |  |  | inhibition of Raf/MEK/ERK and PI3K/Akt signaling pathways [2]: inhibit; apoptotic effects in U937 cells (U937 cells): induced both early and late apoptotic effect
16 | 2.128 ± 0.006 µM | CCCCCCCCC=C1C(=O)N(CCN)c2ccccc21 [S-II-129, 1-(2-aminoethyl)-3-nonylideneindolin-2-one] |  |  | 

Source: patent publication US9598384B2, “3-(2-amino-ethyl)-alkylidene)-thiazolidine-2,4-dione and 1-(2-amino-ethyl)-alkylidene-1,3-dihydro-indol-2-one derivatives as selective sphingosine kinase 2 inhibitors” (VIRGINIA COMMONWEALTH UNIVERSITY, priority 2012, dated 2017)
